Measurements as given in patent publication US9421237B2, “Tripeptide boronic acid or boronic ester, preparative method and use thereof” (PEKING UNIVERSITY, priority 2009, dated 2016).

What was measured:
[1] = target: T1, 20S proteasome extracted from rat liver, peptidyl-glutamyl-peptide-hydrolyzing (PGPH) enzyme activity (Rattus norvegicus, UniProt P28073+Q9JHW0); assay: Proteasome inhibition, PGPH activity, fluorescent peptide Z-leu-leu-Glu-βNA; assay type: biochemical; settings: rat liver 20S proteasome, 37° C., 1 h
T1 construct: 20S proteasome extracted from rat liver; from tissue; host or cells: rat liver
Procedure: (§1) The activities of the proteasome were assayed using fluorescent peptides: Suc-leu-leu-Val-Tyr-AMC (Suc represents succinyl, and AMC represents 7-amino-4-methylcoumarin, purchased from SIGMA) for determining chymotryptic-like (CT-L) activity; Z-Ala-Arg-Arg-AMC (Z represents benzyloxycarbonyl, purchased from Calbiochem) for determining trypsin-like (TL) activity; and Z-leu-leu-Glu-βNA (βNA represents β-naphtylamide, purchased from SIGMA) for determining peptidyl-glutamyl-peptide-hydrolyzing (PGPH) enzyme activity.
(§2) Method for the aforesaid activity assays is as follows: 1 μg of 20S proteasome extracted from rat liver was incubated with a 100 μL solution containing various concentrations of compounds, 50 μM fluorescent peptides and 20 mM Tris-HCl at 37° C. for 1 h, respectively. The fluorescence released from AMC and RNA reagents was measured by a spectrofluorimeter Fluostar OPTIMA and BMG Germany at excitation/emission wavelengths of 380/440 nm and 335/410 nm, respectively. 0.1% DMSO was used as a solvent control. Compared with the fluorescence of solvent control, an inhibition rate was calculated. Said assays used anticancer drug bortezomib (leukemia drug), namely PS341 as compound for positive control.

[2] = target: T2, 20S proteasome extracted from rat liver, chymotryptic-like (CT-L) activity (Rattus norvegicus, UniProt P18421+P28075); assay: Proteasome inhibition, chymotryptic-like (CT-L) activity, fluorescent peptide Suc-leu-leu-Val-Tyr-AMC; assay type: biochemical; settings: rat liver 20S proteasome, 37° C., 1 h
T2 construct: 20S proteasome extracted from rat liver; from tissue; host or cells: rat liver
Procedure: as §1
as §2, with “calculated.” for “calculated. Said assays used anticancer drug bortezomib (leukemia drug), namely PS341 as compound for positive control.”

[3] = target: T3, 20S proteasome extracted from rat liver, trypsin-like (TL) activity (Rattus norvegicus, UniProt P40112+Q9JHW0); assay: Proteasome inhibition, trypsin-like (TL) activity, fluorescent peptide Z-Ala-Arg-Arg-AMC; assay type: biochemical; settings: rat liver 20S proteasome, 37° C., 1 h; read-out: T-L (IC50)
T3 construct: 20S proteasome extracted from rat liver; from tissue; host or cells: rat liver
Procedure: as §1, §2

[4] = tested on: Bel-7402 human hepatocarcinoma cell; assay: Preliminary anti-tumor screening in vitro, SRB method; assay type: cell-based; parameters: key to Test results: +++: inhibition rates at three doses are greater than 50%; ++: inhibition rates at two doses are greater than 50%; +: inhibition rate at one dose is greater than 50%; settings: Bel-7402, SRB
Procedure: (§3) The test methods used in this test example is the routine method for anti-tumor activities test in pharmaceutical area, for example, referring to the following reference: (J. Immunol Method, 1983, 65, 55).
(§4) Test models: A: MTT method (HL-60 human leukemia); B: SRB method (BGC-823 human gastric cancer); C: SRB method (Bel-7402 human hepatocarcinoma); D: SRB method (KB human nasopharyngeal carcinoma).
(§5) The aforesaid tests were carried out with the compounds of Examples 1-26 in the present invention, test results are shown in Tables 2-5.

[5] = tested on: BGC-823 human gastric cancer cell; assay: as above; assay type: cell-based; parameters: key to Test results: +++: inhibition rates at three doses are greater than 50%; ++: inhibition rates at two doses are greater than 50%; +: inhibition rate at one dose is greater than 50%; settings: BGC-823, SRB
Procedure: as §3, §4, §5

[6] = tested on: KB human nasopharyngeal carcinoma cell; assay: as above; assay type: cell-based; parameters: key to Test results: +++: inhibition rates at three doses are greater than 50%; ++: inhibition rates at two doses are greater than 50%; +: inhibition rate at one dose is greater than 50%
Procedure: as §3, §4, §5

[7] = tested on: HL-60 human leukemia cell; assay: Preliminary anti-tumor screening in vitro, MTT method; assay type: cell-based; parameters: key to Test results: +++: inhibition rates at three doses are greater than 50%; ++: inhibition rates at two doses are greater than 50%; +: inhibition rate at one dose is greater than 50%; settings: HL-60, MTT
Procedure: as §3, §4, §5

[8] = number of doses with inhibition > 50%
[9] = Homo sapiens, 0.05 μM, read-out: Inhibition rate %
[10] = Homo sapiens, 0.5 μM, read-out: Inhibition rate %
[11] = Homo sapiens, 5 μM, read-out: Inhibition rate %

SMILES | IC50 [1] | melting point | IC50 [2] | IC50 [3] | also measured
CC(C)C[C@H](NC(=O)[C@H](Cc1ccccc1)NC(=O)[C@H](CC(C)C)NC(=O)c1cnccn1)B(O)O [Compound 6e, N-pyrazineformyl-L-leucyl-L-phenylalanyl-L-leucine Boronic Acid] | 5.14 ± 2.17 nM | 113 to 116 °C | 0.19 ± 0.017 nM | > 20 nM | –
CC(C)C[C@H](NC(=O)[C@H](CC(C)C)NC(=O)[C@H](CC(C)C)NC(=O)c1cnccn1)B(O)O [Compound 6l, N-pyrazineformyl-L-leucyl-L-leucyl-L-leucine Boronic Acid] | > 20 nM | – | > 20 nM | > 20 nM | –
CC(C)C[C@H](NC(=O)[C@H](Cc1ccc2ccccc2c1)NC(=O)[C@H](Cc1ccc2ccccc2c1)NC(=O)c1cnccn1)B1OC2CC3C[C@@H](C3(C)C)[C@]2(C)O1 (stereo partly drawn) [Compound 5h, Pinanediol N-pyrazineformyl-L-naphthylalanyl-L-naphthylalanyl-L-leucine Borate] | – | 136 to 137 °C | 0.495 ± 0.092 nM | > 20 nM | Test results [4, 8]: ++; inhibition at 0.05 µM [4, 9]: 13.1%; inhibition at 0.5 µM [4, 10]: 51.7%; inhibition at 5 µM [4, 11]: 91%; Test results [5, 8]: +++; inhibition at 0.05 µM [5, 9]: 55%; inhibition at 0.5 µM [5, 10]: 89%; inhibition at 5 µM [5, 11]: 95.4%; inhibition at 0.05 µM [6, 9]: 20.8%; inhibition at 0.5 µM [6, 10]: 91.2%; inhibition at 5 µM [6, 11]: 94.6%; Test results [6, 8]: ++; Test results [7, 8]: ++; inhibition at 0.05 µM [7, 9]: 11.4%; inhibition at 0.5 µM [7, 10]: 85.5%; inhibition at 5 µM [7, 11]: 88.3%
CC(C)C[C@H](NC(=O)[C@H](Cc1ccccc1)NC(=O)[C@H](Cc1c[nH]c2ccccc12)NC(=O)c1cnccn1)B(O)O [Compound 6i, N-pyrazineformyl-L-tryptophyl-L-phenylalanyl-L-leucine Boronic Acid] | > 20 nM | – | > 20 nM | > 20 nM | –
CC(C)C[C@H](NC(=O)[C@H](Cc1ccccc1)NC(=O)[C@H](CC(C)C)NC(=O)c1cnccn1)B1OC2CC3C[C@@H](C3(C)C)[C@]2(C)O1 (stereo partly drawn) [Compound 5e, Pinanediol N-pyrazineformyl-L-leucyl-L-phenylalanyl-L-leucine Borate] | 3.405 ± 0.021 nM | 63 to 65 °C | 0.431 ± 0.086 nM | > 20 nM | –
CC(C)C[C@H](NC(=O)[C@H](CC(C)C)NC(=O)[C@H](Cc1ccccc1)NC(=O)c1cnccn1)B1OC2CC3C[C@@H](C3(C)C)[C@]2(C)O1 (stereo partly drawn) [Compound 5k, Pinanediol N-pyrazineformyl-L-phenylalanyl-L-leucyl-L-leucine Borate] | 2.73 ± 1.04 nM | 68 to 70 °C | 0.287 ± 0.019 nM | > 20 nM | –
